Laboratory results published in PMC6691761, “Potential multifunctional agents with anti-hepatoma and anti-inflammation properties by inhibiting NF-кB activation” (Journal of Enzyme Inhibition and Medicinal Chemistry, 2019).

Legend:
[1] = tested on: human breast cancer cells (MCF-7); test: Cytotoxicity, MTT assay, MCF-7; type: cell-based
Source text: (§1) Compounds 83–102 were screened against human neoplastic cell lines, such as human breast cancer cells (MCF-7), human colon cancer cells (HCT116), human lung carcinoma cells (A549), human gastric adenocarcinoma cells (SGC7901), human liver hepatocellular carcinoma cell line (HepG2), human cervical carcinoma cells (HeLa), human acute mononuclear granulocyte leukaemia (THP-1), and human normal hepatic cell line (LO2) using modified MTT assay. All the cells were obtained from the American Type Culture Collection (ATCC, Manassas, VA). The cells were cultured in DMEM or 1640. Positive controls (Doxorubicin (DOX) and Curcumin) and BAPs were initially dissolved in dimethyl sulphoxide (DMSO). Experimental concentration of DMSO was always 0.1% (v/v). The concentrations of BAPs and positive controls were 50, 20, 10, 5, 2.5, 1, 0.5, 0.1, 0.05, and 0.01 μg/mL.
(§2) The cells (1 × 10^4 cells/well) were seeded in a 96-well plate and incubated for 24 h. Cells treated with serial concentrations of drugs were incubated for another 24 h. After the media removed, 20 μL of MTT (5 mg/mL) solution was added and incubated for 4 h at 37 °C. The MTT solution was removed and then 150 μL of DMSO was added. The optical density was measured with a multi-well plate reader (TECAN, Mӓnnedorf, Switzerland) at 570 nm. The results are expressed as a decrease in the cell viability (%) in comparison to untreated controls. The concentration of each compound was examined in triplicate, and the IC50 values are expressed in Table 1.

[2] = tested on: human acute mononuclear granulocyte leukaemia (THP-1); test: Cytotoxicity, MTT assay, THP-1; type: cell-based; settings: for IC50: MTT, 24 h
Source text: as §1, §2

[3] = tested on: human normal hepatic cell line (LO2); test: Toxicity to normal cells, MTT assay, LO2; type: cell-based; settings: Homo sapiens, 24 h
Source text: as §1, §2

[4] = tested on: TNF-α production in LPS-stimulated RAW264.7 cells; test: TNF-α production in LPS-stimulated RAW264.7 cells, ELISA; type: cell-based; settings: BAPs 6.0 μM, PDTC 30 μM, LPS 1.0 μg/mL
Experimental: The anti-inflammatory activities of BAPs were evaluated by ELISA. After pretreated with 30 μM of positive drug pyrrolidinedithiocarbamate (PDTC) or 6 μM of BAPs for 2 h, cells were treated with LPS (1.0 μg/mL) for 22 h. The culture media were collected and centrifuged for detecting the expression levels of TNF-α by an ELISA kit (eBioScience, San Diego, CA).
TNF-α is a common pro-inflammatory factors that can be produced by LPS-stimulated RAW264.7 macrophage[14]^,[24]. In order to evaluate the anti-inflammatory activity of BAPs, the effect of BAPs on TNF-α production in LPS-stimulated RAW264.7 cells was detected by ELISA. […] Only 92 presented slightly lower expression of TNF-α secretion (about 57%).

[5] = tested on: Bcl-2 expression in HepG2 cells; test: Western blot, Bcl-2 expression in HepG2 cells; type: cell-based, human; settings: HepG2, 1.0, 2.0, and 4.0 μM
Experimental: (§3) The HepG2 cells were treated with BAP 96 at different concentrations (1.0, 2.0, and 4.0 µM) for 3 h, and washed twice by PBS. The cells were lysed and the extracted proteins of cell lysates were separated by 10% SDS-PAGE gel electrophoresis, then transferred onto polyvinylidene fluorides membranes. The membranes were probed with antibodies and visualized using an enhanced chemiluminescence (ECL) detection kit.

[6] = tested on: BAX expression in HepG2 cells; test: Western blot, BAX expression in HepG2 cells; type: cell-based, human; settings: HepG2, 1.0, 2.0, and 4.0 μM
Experimental: as §3

[7] = tested on: p-IκBα in LPS-stimulated RAW264.7 cells; test: LPS-stimulated phosphorylation of IκBα in RAW264.7 cells; type: cell-based; settings: RAW264.7, 1.0, 2.0, 4.0 μM
Experimental: as §3
It is known that NF-κB has been implicated in the crossroad of inflammation and cancer[25]^,[26]. In our previous study, some BAPs (such as 23 and 67) could inhibit NF-κB activation by inhibiting the phosphorylation of NF-κB (P65) and IκB[13]^,[14]. Herein, it is an urgent to resolve whether 96 has the same mechanism of action as 23 and 67. Therefore, the RAW264.7 cells were pretreated with LPS, and then treated with different concentrations (1.0, 2.0, 4.0 μM) of 96. […] Similarly, the HepG2 cells were pretreated with TNF-α, then treated with different concentrations (1.0, 2.0, and 4.0 μM) of 96.

[8] = tested on: C-caspase-3 expression in HepG2 xenografts; test: Western blot, C-caspase-3 in HepG2 xenografts; type: in vivo, Balb/c nude mice; settings: 0.2, 1.0 and 5.0 mg/kg
Experimental: (§4) The HepG2 cells xenografts were established using the Balb/c nude mice (female, 7-week-old, 17–19 g, n = 30) (Shanghai Laboratory Animal Center, Shanghai Shi, China) were used to investigate the anti-hepatoma effect of 96. Animal experiments were reviewed and approved by the Binzhou Medical University Experimental Animal Committee. Briefly, HepG2 cells (1 × 10^7/0.2 ml PBS/mouse) were inoculated subcutaneously. Three days after the inoculation, the mice were randomly divided into five groups: the saline treated group (Control), 96 (0.2 mg/kg) group, 96 (1.0 mg/kg) treated group, 96 (5.0 mg/kg) treated group, and DOX (1.0 mg/kg) treated group. 96 were dissolved in saline containing 1% of DMSO and administered intraperitoneally every 2 d for 20 days. DOX was also administered intraperitoneally every 2 d for 20 d. The body weight and HepG2 xenografts volumes were recorded from the day of treatment, and xenografts volumes were calculated using the equation: tumour volume = length×(width)[2]×π/6. At the end of the experiment, mice were sacrificed and the xenografts were obtained for western blotting, HE staining and immunohistochemistry staining.
Western blotting was performed to detect the expression of Bcl-2, Bax and C-caspase-3 in HepG2 xenografts. Fresh HepG2 xenografts tissues were lysed and the obtained proteins were processed as the protein obtained from the HepG2 cells.

[9] = tested on: HepG2 xenografts; test: HE staining of HepG2 xenografts; type: in vivo, Balb/c nude mice
Experimental: as §4
The HepG2 xenografts tissues were embedded using the paraffin, and sectioned for HE staining and immunohistochemistry staining. HE staining was performed routinely. The immunohistochemistry staining carried out as following. Briefly, the processed sections were incubated with the primary antibodies: Bcl-2 and TNF-α (NOVUS BIOLOGICALS) at 4 °C overnight. After washing, the anti-rabbit peroxidase-conjugated secondary antibody (Sigma-Aldrich, St. Louis, MO) was incubated for 1 h at RT. After washing with PBS, the cells were visualized using the 3,3'-diaminobenzidine (DAB) solution under the light microscope. The cell images were taken using a light microscopy (Olympus, Tokyo, Japan).

[10] = quotient of IC50 towards LO2 cells

Which results are given for `CN1CC(=Cc2cccc(N=Cc3cc(Br)ccc3O)c2)C(=O)C(=Cc2ccccc2F)C1` [Compound 96]?
IC50 ([1]; Homo sapiens, MCF7, MTT, 24 h): 2500 ± 200 nM; MCF-7 SI (selectivity index) [1, 10]: 8.0; IC50 ([2]; Homo sapiens, THP-1, 24 h): < 2000 nM; IC50 [2]: 1100 ± 600 nM; THP-1 SI (selectivity index) [2, 10]: 18.1; IC50 [3]: 19900 ± 400 nM; Inhibition of TNF-α secretion compared with PDTC (in words) [4]: strongest inhibitory effect; TNF-α secretion [4]: 45%; Expression of anti-apoptotic protein Bcl-2 [5]: decreased in a dose-dependent manner; Expression of pro-apoptotic protein BAX [6]: dose-dependently increased; Expression level of LPS-induced p-IκBα [7]: effectively decreased in a dose-dependent manner; Expression of C-caspase-3 in HepG2 xenografts [8]: significantly increased in a dose-dependent manner; Fracted cells, HE staining ([9]; 96 5.0 mg/kg, DOX 1.0 mg/kg): a plenty of fracted cells; Histopathological change of cell nucleus, HE staining ([9]; HepG2 xenografts, versus model group): made the HepG2 cell nucleus wrinkled
